The test system of data set [1] is osteoblast activity. To be noted: intravenous infusion 0.55 U/kg/hr continuously for 24 hours, cited from earlier work.
In data set [2] the test system is bone growth. Briefly: Continuous infusion of hPTH1-34 in post-menopausal women with osteoporosis (Example 5). To be noted: continuous infusion 25 to 400 units/24 hrs by infusion pump, twelve months. The format is in vivo, human. Here is the method: The anabolic efficacy of the PTH/PTHrP agonists are tested in humans (Review in Dempster D. W., et al., Endocrine Rev., 1993, 14, 690-709). To determine if continuous administration of hPTH1-34 or its agonist is effective in promoting bone growth in humans, 30 post-menopausal women with established osteoporosis based on bone-density measurements are selected. A double-blind, placebo-controlled, randomized experiment is conducted where two groups of 15 women each are either placed on placebo treatment or continuous infusion of a defined dose of hPTH1-34 (25 units to 400 units/24 hrs) using an infusion pump.
The patients prior to the study are subject to the following: complete health and physical examination, evaluation of the nutritional status (particularly of calcium intake and serum calcium), full analysis of biomarkers for bone-turnover (Riis, B. J., Amer. J. Med. 1993, 95 [Suppl 5A], 17s-21s; Delmas, P. D., Amer. J. Med., […], 91 [Suppl 5B], 59s-63s), radiology, bone mass measurements of vertebral and axial sites (Gerant, H. K., et al., Amer. J. Med., 1991, 91 [Suppl 5B], 49s-53s; Wasnich, R. D., Amer J Med, 1991, 91 [Suppl 5B], 54s-58s) and bone biopsy, to establish the baseline parameters for each individual. […]

Here are results for one substance from US5747456A, “Continuous low-dose administration of parathyroid hormone or its agonist” (Beth Israel Deaconess Medical Center, priority 1996, dated 1998).

With “hPTH1-34: synthetic amino-terminal fragment of PTH1-84 (human parathyroid hormone)”, the “blood levels of ionized calcium” value in data set [1] (humans) is “increase”. In data set [1] (within 16 hours of infusion, six osteoporotic and two normal subjects), the “serum levels of collagen type I” value is “decreased”. In addition, in data set [2], the “bone mass measurements and bone biopsy” value is on record as “clear indication of bone growth”.
